Experimental data as given in the supplement of paper PMC10949913.

Key:
[1] = system: CU-ACC1; assay: area under concentration-response curve (viability) (AUC (a.u.)); higher = less active; conditions: 48 h
Procedure, shortened: (§1)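 Library compounds were dispensed at 11 concentrations (23 nL each) onto three adrenocortical carcinoma cell lines in 1,536-well plates. Luminescence was recorded after 48 h using CellTiter-Glo, and signals were normalised per plate to vehicle and empty-well controls. Fitted concentration-response curves of inhibitory or non-responding classes only supplied the AC50 and area under the curve.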

[2] = system: CU-ACC2; assay: as above; conditions: 48 h
Procedure, shortened: as §1

Structure (SMILES) | area under concentration-response curve [1] | area under concentration-response curve [2]
Cc1c(C(=O)Nc2cccc(C(F)(F)F)c2)cc(-c2ccccc2)n1CCCN1CCOCC1 | 573 | 610
C\C1=C\C(=O)OC2=C1C=CC(=C2)O | 473 | 552
COCCCOc1cc(C[C@@H](C[C@H](N)[C@@H](O)C[C@H](C(=O)NCC(C)(C)C(N)=O)C(C)C)C(C)C)ccc1OC | 564 | 648
CCCCCCOC(=O)/N=C(/N)c1ccc(NCc2nc3cc(C(=O)N(CCC(=O)OCC)c4ccccn4)ccc3n2C)cc1 | 523 | 594
CC(C)NCCCn1c(Sc2cc(Cl)cc(Cl)c2)nc2c(N)ncnc21 | 511 | 572
COc1cc([C@@H]2c3cc4c(cc3[C@@H](O[C@@H]3O[C@@H]5CO[C@@H](C)O[C@H]5[C@H](O)[C@H]3O)[C@H]3COC(=O)[C@H]23)OCO4)cc(OC)c1O | 492 | 592
CCC\C1=C\C(=O)NC(=S)N1 | 467 | 545
CCN1CCCC1CNC(=O)c1cc([S+](=O)([O-])CC)c(N)cc1OC (stereo not drawn) | 561 | 591
CCC(=O)OCC(=O)C1(OC(=O)CC)C(C)CC2C3CC\C4=C\C(=O)\C=C/C4(C)C3(F)C(O)CC12C (stereo not drawn) | 528 | 613
NC\1=N\C(=O)N(\C=C1)[C@@H]2O[C@H](CO)[C@@H](O)[C@H]2O | 582 | 610
CC(C)(C)c1cc(C=C(C#N)C#N)cc(Br)c1O | 552 | 583
CC(C)Cc1ccc(C(C)C(=O)O)cc1 (stereo not drawn) | 539 | 583
C[C@H](Nc1nc(N[C@H](C)C(F)(F)F)nc(-c2cccc(Cl)n2)n1)C(F)(F)F | 547 | 606
CC(C)(C)C1=NC2=C([NH]1)C3=CC=C(F)C=C3C4=C2\C=C/NC4=O | 494 | 500
N=C1N[C@H]2[C@H](CS[C@H]2CCCCC(=O)O)N1 | 217 | 256
CN(C)CCN(C)CCc1ccc(Cl)c(Cl)c1 | 574 | 581
Nc1c2c(nc3ccccc13)CCCC2 | 583 | 653
CCO[C@@H]1OC(=O)C[C@@H]1NC(=O)[C@@H]1CCCN1C(=O)[C@@H](NC(=O)c1ccc(N)c(Cl)c1)C(C)(C)C | 493 | 518
Nc1nc(F)nc2c1ncn2C1OC(COP(=O)(O)O)C(O)C1O (stereo not drawn) | – | 619
Clc1ccc(COC(Cn2ccnc2)c2ccc(Cl)cc2Cl)c(Cl)c1 (stereo not drawn) | 265 | 308
CC1=C(C=CC=C1)N2\C(=N/C3=C(C(=CC=C3)C)C2=O)C[N]4N=CC5=C4N=CN=C5N | 583 | 614
O=C(C1CC1)N1CC[C@@H](Cn2c(-c3ccc(-c4ccc5occc5c4)cc3)nc3cnccc32)C1 | 505 | 486

Structure (SMILES) | area under concentration-response curve [1] | area under concentration-response curve [2]
COc1ncnc(N[S+](=O)([O-])c2ccc(N)cc2)c1OC | 593 | 604
COc1ccnc(C[S+]([O-])c2nc3cc(OC(F)F)ccc3[nH]2)c1OC (stereo not drawn) | 554 | 585
CCCCCCCCCCCCCC(=O)N[C@H](CO)[C@H](O)c1ccc([N+](=O)[O-])cc1 | 502 | 598
O=C1Nc2ccccc2/C1=C1\Nc2ccccc2C1=O | 557 | 589
CC[C@H](C)C(=O)O[C@H]1C[C@H](O)\C=C2\C=C/[C@H](C)[C@H](CC[C@@H](O)C[C@@H](O)CC(O)=O)[C@@H]12 | 544 | 576
O=C/1\C=C(/OC(=C1)/C2=C3SC4=C(SC3=CC=C2)C=CC=C4)N5CCOCC5 | 550 | 650
NC1=NC(=O)N2CC12 (stereo not drawn) | – | 592
O=[S+]([O-])(NCCNC/C=C/c1ccc(Br)cc1)c1cccc2cnccc12 | – | 595
CCCCc1ccc(N[S+](=O)([O-])c2ccc(C)c(C(=O)N3CCN(c4cccc(C)c4C)CC3)c2)cc1 | 527 | 634
O=C(Nc1cccnc1)c1cc(-c2ccnc(F)c2)ccc1OCc1ccccc1 | 514 | 615
NC1CCCN(c2c(/C=C3\SC(=O)NC3=O)cccc2-c2ccccc2)C1 (stereo not drawn) | 563 | 648
C[C@H](NC1=NC=NC2=C1[NH]C=N2)\C3=N\C4=C(C=C(F)C=C4)C(=O)N3C5=CC=CC=C5 | 344 | 280
O=C(Nc1nnc(-c2ccco2)o1)c1cc(-c2ccccc2)nc2ccccc12 | – | 576
CC1(CN2CCC(n3c(=O)[nH]c4ccccc43)CC2)OCc2ccccc2-n2cccc21 (stereo not drawn) | 494 | 556
CC(C)c1ccc2c(c1)c(SC(C)(C)C)c(CC(C)(C)C(=O)[O-])n2Cc1ccc(Cl)cc1 | 457 | 572
O=C(c1ccccc1)c1ccc2n1CCC2C(=O)O (stereo not drawn) | 448 | 529
CC(=O)Nc1ccc(OC[C@](C)(O)C(=O)Nc2ccc([N+](=O)[O-])c(C(F)(F)F)c2)cc1 | 519 | 515
C=CC(=O)N1C[C@H](Nc2ncnc3[nH]ccc23)CC[C@@H]1C | 587 | 622
CC1(C)O[C@@H]2C[C@H]3[C@@H]4C[C@H](F)C/5=C/C(=O)/C=C\[C@]5(C)[C@@]4(F)[C@@H](O)C[C@]3(C)[C@@]2(O1)C(=O)CO | 485 | 586
F\C1=C\NC(=O)NC1=O | 483 | 505
Nc1ncnc2c1nc(Cl)n2[C@@H]1O[C@H](CO)[C@@H](O)[C@H]1O | 471 | 542
Cn1ccc2cc3c(cc21)CCN3C(=O)Nc1cccnc1 | 455 | 490

Structure (SMILES) | area under concentration-response curve [1] | area under concentration-response curve [2]
CC1=CC(=CC(=C1C\C2=N\CCN2)C)C(C)(C)C | – | 595
CCN(CC)C(=O)Cc1csc(N[S+](=O)([O-])c2cccc(Cl)c2C)n1 | 415 | 445
CC(C)(C)NC(=O)[C@H]1CC[C@H]2[C@@H]3CC[C@H]4NC(=O)\C=C/[C@]4(C)[C@H]3CC[C@]12C | 618 | 622
NC/1=N/C(=O)N(/C=C1)[C@@H]2O[C@H](CO)[C@@H](O)C2(F)F | 497 | 541
CC\1=C/C=C\C=[N]1[Pt](N)(Cl)Cl | – | 450
CC#C[C@]1(O)CC[C@H]2[C@@H]/3CCC/4=C/C(=O)CCC4=C3[C@H](C[C@]12C)C5=CC=C(C=C5)N(C)C | – | 546
CN1CC/C(CC1)=C3\c4ccccc4CCc2sccc23 | – | 659
C=C1C(=O)OC2/C=C(/C)CC/C=C(/C)CCC12 (stereo not drawn) | – | 598
Cc1ccccc1C(=O)c1ccc(Nc2ccc(Br)cc2N)cc1Cl | – | 502
COC1=CC=CC(=C1N)\C2=C\C(=O)C3=C(O2)C=CC=C3 | – | 591
CNC(=O)C1=CC=C(C)C(=C1)N2C(=C/C(=C(/Br)C2=O)OCC3=C(F)C=C(F)C=C3)\C | – | 547
CO[C@H]1C[C@@H]2CC[C@@H](C)[C@@](O)(O2)C(=O)C(=O)N2CCCC[C@H]2C(=O)O[C@H]([C@H](C)C[C@@H]2CC[C@@H](OP(C)(C)=O)[C@H](OC)C2)CC(=O)[C@H](C)/C=C(\C)[C@@H](O)[C@@H](OC)C(=O)[C@H](C)C[C@H](C)/C=C/C=C/C=C/1C | – | 536
CC(C)(N)C(=O)N[C@H](COCc1ccccc1)C(=O)N1CCC2(CC1)CN([S+](C)(=O)[O-])c1ccccc12 | – | 489
N#Cc1cc(NC(=O)Nc2nnc(-c3ccncc3)s2)ccc1-c1cn[nH]c1 | – | 529
CN1CCCN=C1/C=C/c1cccs1 | – | 211
CC[C@@H](C)[C@H](NC(=O)[C@H](CC1CCCCC1)NC(=O)c1ccno1)C(=O)N1CCC2(CCc3ccccc32)CC1 | – | 118
C=CC(=O)Nc1ccc(F)c(-c2ncnc3[nH]cc(C(=O)OCC)c23)c1 | – | 489
O=[S+]([O-])(c1cccc2c(I)cccc12)N1CCCNCC1 | – | 649
COc1ccc(-n2nc(C(N)=O)c3c2C(=O)N(c2ccc(N4CCCCC4=O)cc2)CC3)cc1 | – | 374
COC1=CC=C(C=C1)C2CC(=N/N2C3=CC=C(C=C3)[S+](N)([O-])=O)\C4=CC=CC=C4 (stereo not drawn) | – | 648
COCCCOc1ccnc(CS(=O)c2nc3ccccc3[n-]2)c1C.[Na+] (stereo not drawn) | – | 564
